# Reference: publication PMC8583417, “Evaluation of the Antimicrobial Efficacy of N-Acetyl-L-Cysteine, Rhamnolipids, and Usnic Acid—Novel Approaches to Fight Food-Borne Pathogens” (International Journal of Molecular Sciences, 2021)
# Columns and labels:
# S. aureus 1241 [1] = assay: MIC for further growth of biofilm cells, preformed biofilm (A625nm); format: cell-based, Staphylococcus aureus; settings: ≥80% inhibition, 18 h preformed biofilm, 20 h with substance
# Experimental: (§1) Ten concentrations of NAC, RLs, and UA were tested to determine the minimum inhibitory concentration for planktonic growth, and subsequently, the six highest concentrations were applied on preformed biofilms to evaluate the biofilm eradication ability of the compounds. MIC was defined as the lowest substance concentration able to inhibit at least 80% of microbial growth (MICPC80 for planktonic cells, MICBC80 for further growth of biofilm cells), inhibit 80% of metabolic activity (MICBM80 for biofilm metabolic activity, MICMPB80 for metabolic activity of preformed biofilm), prevent biofilm formation by at least 80% (MICBF80 for biofilm formation), or reduce a preformed biofilm by at least 80% (MICBR80 for biofilm reduction). The results of MICs are summarized in Table 1 (planktonic cells) and Table 2 (biofilm-associated cells).
# (§2) The determination of MICs was performed according to Chlumsky et al.. […] To evaluate planktonic cells growth (MICPC80) and further growth of biofilm cells (MICBC80), the optical density of the content of the microtiter plates was measured spectrophotometrically at 625 nm before and after 24 h (for biofilm formation) of cultivation or before and after additional 20 h incubation with the tested compound (for preformed biofilm). […] To evaluate the inhibition of biofilm formation (MICBF80) and reduction in preformed biofilms (MICBR80), biomass was quantified using crystal violet staining, and its metabolic activity (MICBM80 and MICMPB80) was estimated by using the MTT (thiazyl tetrazolium bromide, Sigma-Aldrich, USA) reduction assay, both measured spectrophotometrically at 595 nm.
# (§3) All inhibitions were calculated using the formula of Chlumsky et al. below (Equation (1)):(1) A625(595)nm inhibition (%)=A625(595)nm (control) – A625(595)nm(natural substance)/A625(595)nm (control)× 100 where A625(595)nm (control) is the absorbance of bacterial suspension/biofilm itself, and A625(595)nm(natural substance) is the absorbance of the bacterial suspension/biofilm with the added natural substance (NAC, RLs, and UA). […]
# E. coli 693/17 [2] = assay: MIC for planktonic cell growth (A625nm); format: cell-based, Escherichia coli; settings: for MICPC80: ≥80% inhibition, 24 h
# Experimental: as §1
# (§4) The determination of MICs was performed according to Chlumsky et al.. Briefly, 96-well flat-bottomed microtiter plates were inoculated with 75 µL (for biofilm formation) or 100 µL (for preformed biofilm) of bacterial suspension (A625nm 0.08 to 0.1) in technical triplicates and were then carefully mixed with the dilution series of the test substances (24 h cultivation at 25 °C for S. Infantis, 37 °C for other strains) or were directly cultivated to preform biofilms (18 h). For a positive control of bacterial growth, the inoculum was mixed with a pure sterile medium. Furthermore, the sterile medium was included in the plate as a marker of potential microbial contamination. To evaluate planktonic cells growth (MICPC80) and further growth of biofilm cells (MICBC80), the optical density of the content of the microtiter plates was measured spectrophotometrically at 625 nm before and after 24 h (for biofilm formation) of cultivation or before and after additional 20 h incubation with the tested compound (for preformed biofilm). The difference of A625nm was considered as a measure of the ability of cells to grow in the presence of the tested substances. To evaluate the inhibition of biofilm formation (MICBF80) and reduction in preformed biofilms (MICBR80), biomass was quantified using crystal violet staining, and its metabolic activity (MICBM80 and MICMPB80) was estimated by using the MTT (thiazyl tetrazolium bromide, Sigma-Aldrich, USA) reduction assay, both measured spectrophotometrically at 595 nm.
# (§5) All inhibitions were calculated using the formula of Chlumsky et al. below (Equation (1)):(1) A625(595)nm inhibition (%)=A625(595)nm (control) – A625(595)nm(natural substance)/A625(595)nm (control)× 100 where A625(595)nm (control) is the absorbance of bacterial suspension/biofilm itself, and A625(595)nm(natural substance) is the absorbance of the bacterial suspension/biofilm with the added natural substance (NAC, RLs, and UA).
# (§6) When the minimum inhibitory concentration could not be determined, the MIC was established as >the highest tested concentration for NAC, RLs, and UA.
# E. coli 683/17 [3] = assay: MIC for planktonic cell growth (A625nm); format: cell-based, Escherichia coli; settings: for MICPC80: ≥80% inhibition, 24 h
# Experimental: as §1, §4, §5, §6
# E. coli 693/17 [4] = assay: MIC for further growth of biofilm cells, preformed biofilm (A625nm); format: cell-based, Escherichia coli; settings: for MICBC80: ≥80% inhibition, 18 h preformed biofilm, 20 h with substance
# Experimental: as §1, §4, §5, §6
# E. coli 683/17 [5] = assay: as above; format: cell-based, Escherichia coli; settings: for MICBC80: ≥80% inhibition, 18 h preformed biofilm, 20 h with substance
# Experimental: as §1, §4, §5, §6
# [6] = system: S. Enteritidis ATCC 13076; assay: as above; format: cell-based, Salmonella enterica Enteritidis; settings: for MICBC80: ≥80% inhibition, 18 h preformed biofilm, 20 h with substance
# Experimental: as §1, §2, §3
# S. aureus 816 = assay: MIC for metabolic activity of preformed biofilm (MTT reduction assay); format: cell-based, Staphylococcus aureus; settings: for MICMPB80: ≥80% inhibition, 20 h with substance
# Experimental: as §1, §4, §5, §6
# S. aureus 1241 [7] = assay: as above; format: cell-based, Staphylococcus aureus; settings: ≥80% inhibition, 20 h with substance
# Experimental: as §1, §4, §5, §6
Compound,MICBC80 (S. aureus 1241 [1]),MICPC80 (E. coli 693/17 [2]),MICPC80 (E. coli 683/17 [3]),MICBC80 (E. coli 693/17 [4]),MICBC80 (E. coli 683/17 [5]),MICBC80 [6],MICMPB80 (S. aureus 816),MICMPB80 (S. aureus 1241 [7]),maximal achieved inhibition (MICPC80 not reached) (E. coli 693/17 [2]; within tested concentrations),maximal achieved inhibition (MICPC80 not reached) (E. coli 683/17 [3]; within tested concentrations),maximal achieved inhibition (MICBC80 not reached) (E. coli 693/17 [4]; within tested concentrations),maximal achieved inhibition (MICBC80 not reached) (E. coli 683/17 [5]; within tested concentrations),maximal achieved inhibition (MICBC80 not reached) ([6]; within tested concentrations),maximal achieved inhibition (MICMPB80 not reached) (S. aureus 816; within tested concentrations)
"CC(=O)N[C@@H](CS)C(=O)O [NAC, N-Acetyl-L-cysteine]",6250 µg/mL,6250 µg/mL,3130 µg/mL,3130 µg/mL,6250 µg/mL,6250 µg/mL,"12,500 µg/mL",6250 µg/mL,,,,,,
"CC(=O)c1c(O)c(C)c(O)c2c1OC1=CC(=O)C(C(C)=O)C(=O)C12C (single isomer, unassigned; (+)) [UA, (+)-usnic acid]",3.91 µg/mL,> 31.3 µg/mL,> 31.3 µg/mL,> 31.3 µg/mL,> 31.3 µg/mL,> 31.3 µg/mL,> 31.3 µg/mL,3.91 µg/mL,40%,20%,61%,44%,51%,67%
